Source: patent publication US20190111168A1, “PHOTOSENSITIZER DISPERSION, AND USE THEREOF” (Universität Regensburg, priority 2016, published 2019)

Assays:
[1] = time-resolved singlet oxygen luminescence measurements in water and microemulsions; type: physicochemical; design: Integral: unit not given here; conditions: for production of singlet oxygen following irradiation with electromagnetic radiation: 5 μM in water or microemulsions; for formation of singlet oxygen in the microemulsions used, times higher than in water: microemulsions versus water; for Integral: singlet oxygen luminescence; for Decay period / Formation time / Relative yield with respect to H2O: singlet oxygen; for Relative yield with respect to H2O: ratio of the integrals
Description: The formation of singlet oxygen following irradiation of a photosensitizer-containing microemulsion was determined using time-resolved singlet oxygen luminescence measurements.
For the relevant measurements, 5 μM of the respective photosensitizers used were dissolved in water or in the emulsions E1 to E4.
The time-resolved singlet oxygen luminescence measurements were carried out in accordance with the methods described in S. Y. Egorov et al., 1999.
A tuneable laser system was used to produce the singlet oxygen (model: NT242-SH/SFG, serial number: PGD048) from EKSPLA (Vilnius, […]). A portion of the monochromatic laser beam produced was directed onto a photodiode which acted as a trigger signal for the time-correlated single photon measurement.
The other part of the laser beam was directed onto a 1 cm thick quartz cell (SUPRASIL, Type 101-QS, Hellma GmbH & Co. KG, Mühlheim, DE), in which the solution to be tested had been disposed.
The formation of singlet oxygen was detected by direct detection of the time- and spectrally-resolved singlet oxygen luminescence.
Singlet oxygen luminescence was carried out by means of a nitrogen-cooled photomultiplier (model R5509-42, Hamamatsu Photonics, Hamamatsu, Japan) and a multiscaler (7886S, FAST Corn Tec GmbH, Oberhaching, Germany).
The singlet oxygen luminescence was detected at a wavelength in the range 1200 nm to 1400 nm using interference filters which were disposed in front of the photomultiplier.
The quantum yield was determined in accordance with the method described in Baier J. et al. (“Singlet Oxygen Generation by UVA Light Exposure of Endogenous Photosensitizers”, Biophys. J. 91(4), 2006, pages 1452 to 1459; doi. 10.1529/biophysj.106.082388).
The relative yield of singlet oxygen for each photosensitizer with respect to the quantity of singlet oxygen formed in water was calculated from the ratio of the integrals.

[2] = tested on: Escherichia coli (E. coli; ATCC Number: 25922); assay: phototoxicity measurements (MTT test; colony forming units by Miles and Misra); type: cell-based; conditions: for effectiveness against E. coli in a microemulsion compared with water: microemulsion versus water; for reduction in the quantity of E. coli: irradiated
Description: (§1) In order to investigate the phototoxicity of the microemulsions in accordance with the invention, a MTT test was used. Assaying cell vitality using a MTT test is based on the reduction of the yellow, water-soluble dye 3-(4,5-dimethylthiazol-2-yl)-2,5-diphenyltetrazolium bromide (MIT, Sigma-Aldrich Chemie GmbH, Munich, DE) into a blue-violet […] (formazan) which is insoluble in water. MTT is a dye which can pass through membranes, which is metabolized by mitochondrial dehydrogenases in living cells, which in the end leads to the formation of formazan crystals.
(§2) Formazan crystals can no longer pass through the membranes and accumulate in proliferating undamaged cells. After cell lysis and dissolving the crystals, the dye is then quantified by colorimetric measurement at 550 nm in a multi-well spectrophotometer (ELISA reader). The quantity of formazan formed is determined as the optical density (OD). The measured quantity of formazan is directly proportional to the number of proliferating cells, so that this test is suitable for the measurement of the phototoxicity of the microemulsions used. The measured OD can be assigned a cell count by means of a previously determined calibration curve.
(§3) The concentration of the respective photosensitizers TMPyP, SA-PN-01a, SA-PN-02a, SA-PN-24d, FL-AS-H-1a or FL-AS-H-2 in the microemulsions E1 to E4 was 0 μM, 10 μM, 25 μM, 50 μM, 100 μM, 250 μM and 500 μM.
(§4) Furthermore, the respective microemulsions E1 to E4 without photosensitizer were used as a control.
(§5) The phototoxicity measurements were carried out on Escherichia coli (E. coli; ATCC Number: 25922) and Staphylococcus aureus (S. aureus; ATCC Number: 25923), as described by Mosmann (1983). (Mosmann T.: Rapid colorimetric assay for cellular growth and survival: application to proliferation and cytotoxicity assays: J. Immunol. methods. 1983 (65); pages 55-63).
(§6) 25 μL of a suspension of the bacteria used were grown overnight in Müller-Hinton liquid medium (Merck KGaA, Darmstadt, Germany) with an optical density of 0.6 at 600 nm were incubated with 25 μL of the test solution at room temperature for 10 seconds in darkness in a 96-well microtitre plate (Cellstar, Greiner Bio-One, Frickenhausen, Germany).
(§7) Next, the microtitre plate was irradiated for 40 s. For irradiation, the light source Blue V from Waldmann (Villingen-Schwenningen, Germany) was used, which emits light at 380 to 480 nm (emission maximum at approximately 420 nm). The applied power was 20 mW/cm^2.
(§8) For each experiment, three controls were carried out at the same time in order to exclude side effects of the irradiation/photosensitizer (PS) on survival of the bacteria: (i) no PS, only light (=light control), (ii) no light, only PS (=dark control), and (iii) neither light nor PS (=reference control).
(§9) After irradiation had been completed, 75 μL of a 25% by weight SDS solution was added to each well of the microtitre plate and the bacterial cells were lysed overnight at 37° C. in an incubator.
(§10) Finally, the optical density (OD) was determined with the aid of a microtitre plate photometer (model EAR 400 AT, SLT Laborinstruments Austria, Salzburg, AT).
(§11) After lysis of the cells and dissolution of the crystals, the dye could then be quantified in a multi-well spectrophotometer (ELISA-Reader) by colorimetric measurement at 550 nm.
(§12) The determination of the colony forming units was carried out in accordance with the method published by Miles and Misra (Miles, AA; Misra, SS, Irwin, JO (1938 November). “The estimation of the bactericidal power of the blood” The Journal of hygiene 38 (6): 732-49). In this regard, serial dilutions from 10^−2 to 10^−9 of the corresponding bacterial suspension were produced. In each case, 3×20 μL of the corresponding bacterial dilutions were then dropped onto Müller-Hinton plates and incubated at 37° C. for 24 h. Next, the number of surviving colony forming units (CFU) was determined. All of the experiments were carried out three times.

[3] = tested on: Staphylococcus aureus (S. aureus; ATCC Number: 25923); assay: as above; type: cell-based; conditions: for effectiveness against S. aureus in a microemulsion compared with water: microemulsion versus water; for reduction in the quantity of S. aureus: irradiated
Description: as §1, §2, §3, §4, §5, §6, §7, §8, §9, §10, §11, §12

[4] = absorption spectrum following irradiation with varying doses of light (degradation of photosensitizer); type: physicochemical; conditions: light dose 5.5 J to 990 J
Description: The absorption of the FL-AS-H-1a photosensitizer used in the microemulsions E5 and E6 was determined by recording an absorption spectrum for a wavelength range of 250 nm to 600 nm, as described in Example 1. To this end, the FL-AS-H-2 photosensitizer was dissolved in a concentration of 10 μM in the microemulsions E5 and E6, as well as in water. Furthermore, an absorption spectrum of FL-AS-H-2 in microemulsions E5 and E6 as well as in water was measured following irradiation with varying doses of light. For the irradiation, the light source Blue V from Waldmann, which emits light at 380 to 480 nm (emission maximum at approximately 420 nm) was used. The applied light dose was from 5.5 J to 990 J.

[5] = time-resolved singlet oxygen luminescence measurements in gels; type: physicochemical; conditions: final concentration 10 μM
[6] = photosensitizer 5 μM in microemulsion E1
[7] = photosensitizer 5 μM in microemulsion E2
[8] = photosensitizer 5 μM in microemulsion E1 (DMS, SDS/1-pentanol (1:2); water)
[9] = photosensitizer 5 μM in microemulsion E2 (DMS, SDS/1,2-pentanediol (1:2); water)
[10] = 10 μM in one of the microemulsions E1 to E4
[11] = in one of the microemulsions E1 to E4, from a concentration of 25 μM
[12] = 10 μM to 100 μM, both in water and in microemulsions E1 to E4, Blue V 40 s, 20 mW/cm^2
[13] = more than 100 μM in water (concentrated aqueous solutions)
[14] = more than 100 μM to 500 μM in microemulsions

SMILES	production of singlet oxygen following irradiation with electromagnetic radiation [1]	formation of singlet oxygen in the microemulsions used, times higher than in water [1]	Integral ([1]; photosensitizer 5 μM in H2O)	Integral [1, 6]	Integral [1, 7]	Decay period ([1]; photosensitizer 5 μM in H2O)	Formation time ([1]; photosensitizer 5 μM in H2O)	Decay period [1, 6]	Formation time [1, 8]	Decay period [1, 7]	Formation time [1, 9]	Relative yield with respect to H2O ([1]; 5 μM in microemulsion E1)	Relative yield with respect to H2O ([1]; 5 μM in microemulsion E2)	reduction in the quantity of E. coli following irradiation [2, 10]	reduction in the quantity of S. aureus following irradiation [3, 10]	effectiveness against E. coli in a microemulsion compared with water [2]	effectiveness against S. aureus in a microemulsion compared with water [3]	also measured
Cc1cc2nc3c(=O)[nH]c(=O)nc-3n(CCN)c2cc1C.Cl [FL-AS-H-1a, 10-(2-aminoeth-1-yl)-7,8-dimethyl-[3H,10H]-benzo[g]pteridine-2,4-dione hydrochloride]	produced singlet oxygen	5 times	366	1752	1695	3.6 μs	3.6 μs	8.6 μs	3.0 μs	6.7 μs	4.0 μs	4.79	4.63	approximately 2 log10 units	approximately 2 log10 units	–	–	–
Cc1cc2nc3c(=O)n(CCN)c(=O)nc-3n(CCN)c2cc1C.Cl.Cl [FL-AS-H-2, 3,10-bis(2′-aminoeth-1′-yl)-7,8-dimethylbenzo[g]pteridine-2,4-dion-dihydrochloride]	–	–	–	–	–	–	–	–	–	–	–	–	–	–	–	–	–	degradation of the photosensitizer following irradiation ([4]; 10 μM in water, microemulsions E5 and E6, Blue V 380 to 480 nm): degraded both in water as well as in the microemulsions E5 and E6; rate of degradation in water compared with microemulsion E5 or E6 ([4]; 10 μM, Blue V): significantly faster
O=C1C(C[n+]2ccccc2)=Cc2cccc3cccc1c23.[Cl-] [SA-PN-01a]	produced singlet oxygen	7 times	571	4413	3933	3.2 μs	2.5 μs	9.2 μs	1.0 μs	7.4 μs	1.6 μs	7.73	6.89	3 log10 units	3 log10 units	more effective	more effective	reduction in the quantity of E. coli following irradiation [2, 11]: more than 6 log10 units; reduction in the quantity of S. aureus following irradiation [3, 11]: more than 6 log10 units
C[N+](C)(C)CC1=Cc2cccc3cccc(c23)C1=O.[Cl-] [SA-PN-02a, N,N,N-trimethyl-1-(1-oxo-1H-phenalen-2-yl)methanaminium chloride]	–	–	–	–	–	–	–	–	–	–	–	–	–	–	–	more effective	more effective	–
CN(CC1=Cc2cccc3cccc(c23)C1=O)C(=N)N.Cl [SA-PN-24d, 1-((1-oxo-1H-phenalen-2-yl)methyl)-1-methylguanidinium chloride]	–	–	–	–	–	–	–	–	–	–	–	–	–	–	–	more effective	more effective	–
C[n+]1ccc(-c2c3nc(c(-c4cc[n+](C)cc4)c4ccc([nH]4)c(-c4cc[n+](C)cc4)c4nc(c(-c5cc[n+](C)cc5)c5ccc2[nH]5)C=C4)C=C3)cc1 [TMPyP, 5,10,15,20-tetrakis(1-methyl-4-pyridyl)-porphyrin-tetra-(p-toluenesulphonate), reference compound]	produced singlet oxygen	–	985	2874	1955	3.8 μs	1.9 μs	8.9 μs	1.7 μs	7.2 μs	2.3 μs	2.92	1.98	–	–	–	–	destruction of E. coli by the singlet oxygen formed by the irradiation [2, 12]: destroyed; reduction in the quantity of E. coli [2, 13]: 2 log units; reduction in the quantity of E. coli [2, 14]: 5 log10 units; destruction of S. aureus by the singlet oxygen formed by the irradiation [3, 12]: destroyed; reduction in the quantity of S. aureus [3, 13]: 2 log units; reduction in the quantity of S. aureus [3, 14]: 5 log10 units; decay time for the singlet oxygen signal (tD) ([5]; in gel G3): 7.4 μs; rise time for the singlet oxygen signal (tR) ([5]; in gel G3): 2.7 μs; formation of singlet oxygen following irradiation ([5]; in gels G1, G2 and G3): could be detected
